Target: T1, ATM (Homo sapiens, UniProt Q13315)
T1 construct: detecting phosphorylation of Chk2 in a human non-small cell lung cancer cell line NCI-H460 (ATCC company); host or cells: NCI-H460 human non-small cell lung cancer cells
Assay: ATM inhibition test (phosphorylation of Chk2 generated by ionizing radiation, AlphaScreen SureFire)
Assay type: cell-based
Details: phosphorylated Chk2 in NCI-H460 cells, ionizing radiation 8Gy, 1 hour after test compound treatment; read-out: ATM inhibitory activity
Protocol: ATM inhibitory effects of a test compound were measured by detecting phosphorylation of Chk2 in a human non-small cell lung cancer cell line NCI-H460 (ATCC company). The level of phosphorylated Chk2 generated by an ionizing radiation was measured using AlphaScreen SureFire (TGR Biosciences).
The cells were seeded by 40000 cells per well in 96-well CellBIND® plates (Corning International Inc.), and incubated at 37° C. overnight in 5% CO2. […] 1 hour after a test compound treatment, half of the plates were irradiated with ionizing radiation 8Gy (Faxitron Bioptics, LLC, RX-650 type). The plates irradiated with ionizing radiation and the plates not being irradiated with ionizing radiation were incubated at 37° C. for 1 hour in 5% CO2. […] Subsequent operations were performed according to the instruction book of AlphaScreen SureFire. […] The inhibition ratio was calculated by the following equation. Inhibition ratio (%)=((signal of drug untreated wells in the plates irradiated with ionizing radiation−signal of drug treated wells in the plates irradiated with ionizing radiation)/(signal of drug untreated wells in the plates irradiated with ionizing radiation−signal of drug untreated wells in the plates not being irradiated with ionizing radiation))×100

T1 sequence (Q13315 whole entry): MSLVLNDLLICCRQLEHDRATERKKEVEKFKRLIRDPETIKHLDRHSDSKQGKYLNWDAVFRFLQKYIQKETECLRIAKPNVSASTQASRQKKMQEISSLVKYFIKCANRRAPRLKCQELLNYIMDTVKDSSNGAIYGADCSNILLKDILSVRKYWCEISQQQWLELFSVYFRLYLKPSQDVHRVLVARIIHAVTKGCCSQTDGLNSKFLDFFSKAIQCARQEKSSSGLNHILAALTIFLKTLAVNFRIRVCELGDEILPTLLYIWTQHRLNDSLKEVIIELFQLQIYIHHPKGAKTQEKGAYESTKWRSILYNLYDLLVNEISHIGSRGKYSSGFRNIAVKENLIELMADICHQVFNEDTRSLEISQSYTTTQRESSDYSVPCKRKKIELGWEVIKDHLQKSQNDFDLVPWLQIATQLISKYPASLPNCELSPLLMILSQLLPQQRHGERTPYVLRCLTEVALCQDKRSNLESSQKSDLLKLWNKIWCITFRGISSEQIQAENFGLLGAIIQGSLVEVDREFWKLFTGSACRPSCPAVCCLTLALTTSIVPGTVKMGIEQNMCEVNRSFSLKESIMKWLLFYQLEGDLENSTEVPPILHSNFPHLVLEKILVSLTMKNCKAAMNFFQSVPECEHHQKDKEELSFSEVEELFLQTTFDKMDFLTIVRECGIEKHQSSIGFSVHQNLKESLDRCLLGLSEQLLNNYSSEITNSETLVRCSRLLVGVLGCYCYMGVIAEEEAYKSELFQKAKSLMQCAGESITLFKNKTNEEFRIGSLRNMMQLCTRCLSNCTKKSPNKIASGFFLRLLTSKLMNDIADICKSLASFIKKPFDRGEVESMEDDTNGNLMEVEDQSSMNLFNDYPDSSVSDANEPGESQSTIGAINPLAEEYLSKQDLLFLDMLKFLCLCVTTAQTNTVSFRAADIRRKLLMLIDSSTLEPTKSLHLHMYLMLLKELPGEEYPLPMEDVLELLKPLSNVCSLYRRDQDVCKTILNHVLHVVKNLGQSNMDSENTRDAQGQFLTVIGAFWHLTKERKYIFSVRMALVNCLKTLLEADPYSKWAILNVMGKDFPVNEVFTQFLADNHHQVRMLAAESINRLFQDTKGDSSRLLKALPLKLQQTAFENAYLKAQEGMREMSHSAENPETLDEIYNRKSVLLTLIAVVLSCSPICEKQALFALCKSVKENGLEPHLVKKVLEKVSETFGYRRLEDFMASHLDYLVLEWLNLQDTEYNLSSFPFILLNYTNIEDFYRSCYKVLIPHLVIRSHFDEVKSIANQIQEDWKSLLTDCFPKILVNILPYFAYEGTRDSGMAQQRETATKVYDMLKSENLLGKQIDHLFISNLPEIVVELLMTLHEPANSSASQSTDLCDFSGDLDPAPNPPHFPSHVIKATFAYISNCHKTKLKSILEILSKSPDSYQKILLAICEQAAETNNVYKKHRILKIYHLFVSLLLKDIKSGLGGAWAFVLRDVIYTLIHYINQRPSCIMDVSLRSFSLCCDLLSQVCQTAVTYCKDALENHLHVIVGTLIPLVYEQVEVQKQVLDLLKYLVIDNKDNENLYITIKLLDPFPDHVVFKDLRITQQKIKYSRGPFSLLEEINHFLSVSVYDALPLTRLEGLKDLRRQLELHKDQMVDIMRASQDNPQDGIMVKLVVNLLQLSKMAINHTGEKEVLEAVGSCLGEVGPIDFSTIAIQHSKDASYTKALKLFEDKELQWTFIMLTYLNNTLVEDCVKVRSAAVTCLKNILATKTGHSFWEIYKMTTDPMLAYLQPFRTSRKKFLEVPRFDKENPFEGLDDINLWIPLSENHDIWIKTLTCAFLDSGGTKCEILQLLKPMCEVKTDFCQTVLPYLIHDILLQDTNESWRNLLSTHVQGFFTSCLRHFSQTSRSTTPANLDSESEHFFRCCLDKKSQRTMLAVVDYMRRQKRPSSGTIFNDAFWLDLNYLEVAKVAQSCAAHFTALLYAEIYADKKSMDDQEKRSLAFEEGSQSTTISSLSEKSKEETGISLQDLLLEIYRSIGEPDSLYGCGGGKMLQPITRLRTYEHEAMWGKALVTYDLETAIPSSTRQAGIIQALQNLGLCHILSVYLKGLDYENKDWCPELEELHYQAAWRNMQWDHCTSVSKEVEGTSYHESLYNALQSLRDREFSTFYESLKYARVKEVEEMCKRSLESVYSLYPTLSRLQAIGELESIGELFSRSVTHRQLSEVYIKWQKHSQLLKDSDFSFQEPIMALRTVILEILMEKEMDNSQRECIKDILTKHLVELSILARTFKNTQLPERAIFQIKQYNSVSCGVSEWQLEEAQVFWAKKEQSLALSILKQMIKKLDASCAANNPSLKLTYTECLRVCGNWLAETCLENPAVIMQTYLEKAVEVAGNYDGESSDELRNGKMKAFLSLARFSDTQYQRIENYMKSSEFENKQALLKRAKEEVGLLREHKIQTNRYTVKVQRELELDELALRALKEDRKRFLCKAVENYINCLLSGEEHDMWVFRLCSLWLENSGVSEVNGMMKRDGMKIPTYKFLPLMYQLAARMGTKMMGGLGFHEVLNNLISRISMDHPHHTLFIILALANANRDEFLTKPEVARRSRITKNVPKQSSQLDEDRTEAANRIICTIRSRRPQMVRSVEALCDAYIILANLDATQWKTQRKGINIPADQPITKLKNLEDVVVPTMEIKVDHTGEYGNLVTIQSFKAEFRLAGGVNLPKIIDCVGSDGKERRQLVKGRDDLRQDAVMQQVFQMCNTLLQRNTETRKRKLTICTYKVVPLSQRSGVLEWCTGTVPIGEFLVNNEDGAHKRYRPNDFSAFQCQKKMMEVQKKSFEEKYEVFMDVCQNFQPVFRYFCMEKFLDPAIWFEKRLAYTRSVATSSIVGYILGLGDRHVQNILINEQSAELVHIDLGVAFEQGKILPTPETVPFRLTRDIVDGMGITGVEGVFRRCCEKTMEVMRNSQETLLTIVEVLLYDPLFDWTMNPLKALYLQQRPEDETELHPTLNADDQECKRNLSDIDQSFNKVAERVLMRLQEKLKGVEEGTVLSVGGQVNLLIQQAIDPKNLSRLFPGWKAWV

Compound | IC50 [nM]
O=c1cc(N2CCOCC2)cc(-c2cccc3c2Sc2ccc(N[C@@H]4COC[C@@H]4N4CCOCC4)cc2S3)[nH]1 (relative stereo) [Example 1-61, cis-4-morpholino-6-(7-((4-morpholinotetrahydrofuran-3-yl)amino)thianthren-1-yl)pyridin-2(1 H)-one] | < 100
O=c1cc(N2CCOCC2)cc(-c2cccc3c2Oc2ccc(NC4CN(CCc5ccccc5)C4)cc2C3)[nH]1 [Example 2-19-6, 4-Morpholino-6-(7-((1-phenethylazetidin-3-yl)amino)-9H-xanthen-4-yl)pyridin-2(1H)-one] | 100 to 500
CNCc1ccnc(C(C)Nc2ccc3c(c2)Sc2cccc(-c4cc(N5CCOCC5)cc(=O)[nH]4)c2S3)n1 (centres unmarked) [Example 1-20-1, 6-(7-((1-(4-((methylamino)methyl)pyrimidin-2-yl)ethyl)amino)thianthren-1-yl)-4-morpholinopyridin-2(1H)-one] | 100 to 500
CNCC(Nc1ccc2c(c1)Sc1cccc(-c3cc(N4CCOCC4)cc(=O)[nH]3)c1S2)c1cccc(C)n1 (single isomer, unassigned) [Example 1-19-4-2, 6-(7-((2-(Methylamino)-1-(6-methylpyridin-2-yl)ethyl)amino)thianthren-1-yl)-4-morpholinopyridin-2(1H)-one] | 500 to 2000
CC(Nc1ccc2c(c1)Cc1cccc(-c3cc(N4CCOCC4)cc(=O)[nH]3)c1O2)c1cncc(F)c1 (centres unmarked) [Example 2-14-29, 6-(7-((1-(5-Fluoropyridin-3-yl)ethyl)amino)-9H-xanthan-4-yl)-4-morpholino pyridin-2(1H)-one] | 100 to 500
CC(CCN1CCCCC1)Nc1ccc2c(c1)Sc1cccc(-c3cc(N4CCOCC4)cc(=O)[nH]3)c1S2 (centres unmarked) [Example 1-42-3, 4-Morpholino-6-(7-((4-(piperidin-1-yl)butan-2-yl)amino)thianthren-1-yl) pyridin-2(1H)-one] | 100 to 500
O=c1cc(N2CCOCC2)cc(-c2cccc3c2Sc2ccc(NC(CN4CCOCC4)CN4CCOCC4)cc2S3)[nH]1 [Example 1-51-12, 6-(7-((1,3-Dimorpholinopropan-2-yl)amino)thianthren-1-yl)-4-morpholino pyridin-2 (1H)-one] | < 100
Cc1cccc(C(C)Nc2ccc3c(c2)Cc2ccnc(-c4cc(N5CCOCC5)cc(=O)[nH]4)c2O3)n1 (centres unmarked) [Example 2-42-6, 6-(7-((1-(6-Methylpyridin-2-yl)ethyl)amino)-5H-chromeno[2,3-c]pyridin-1-yl)-4-morpholinopyridin-2(1H)-one] | 100 to 500
Cc1cncc(CNc2ccc3c(c2)Cc2cccc(-c4cc(N5CCOCC5)cc(=O)[nH]4)c2O3)n1 [Example 2-14-74, 6-(7-(((6-Methylpyrazin-2-yl)methyl)amino)-9H-xanthen-4-yl)-4-morpholino pyridin-2(1H)-one] | 100 to 500
O=c1cc(N2CCOCC2)cc(-c2cccc3c2Oc2ccc(NCc4cccnc4)cc2CC3)[nH]1 [Example 2-51-2, 4-Morpholino-6-(8-((pyridin-3-ylmethyl)amino)-10,11-dihydrodibenz[b,f]oxepin-4-yl)pyridin-2(1H)-one] | 100 to 500
O=c1cc(N2CCOCC2)cc(-c2ccc(F)c3c2Oc2ccc(NCc4cc(C5CC5)ccn4)cc2C3)[nH]1 [Example 2-44-2, 6-(7-(((4-Cyclopropylpyridin-2-yl)methyl)amino)-1-fluoro-9H-xanthen-4-yl)-4-morpholinopyridin-2(1H)-one] | 100 to 500
O=c1cc(N2CCOCC2)cc(-c2cccc3c2Oc2ccc(NC4CCN(Cc5ccc(OC6CCOCC6)nc5)CC4)cc2C3)[nH]1 [Example 2-28-21, 4-Morpholino-6-(7-((1-((6-((tetrahydro-2H-pyran-4-yl)oxy)pyridin-3-yl)methyl)piperidin-4-yl)amino)-9H-xanthen-4-yl)pyridin-2(1H)-one] | 100 to 500
Cc1ccnc(C(CO)Nc2ccc3c(c2)Sc2cccc(-c4cc(N5CCOCC5)cc(=O)[nH]4)c2S3)c1 (single isomer, unassigned) [Example 1-12-138-1, 6-(7-((2-hydroxy-1-(4-methylpyridin-2-yl)ethyl)amino)thianthren-1-yl)-4-morpholinopyridin-2(1H)-one] | 100 to 500
CNc1ncc(C(C)Nc2ccc3c(c2)Cc2cccc(-c4cc(N5CCOCC5)cc(=O)[nH]4)c2O3)cn1 (centres unmarked) [Example 2-14-54, 6-(7-((1-(2-(Methylamino)pyrimidin-5-yl)ethyl)amino)-9H-xanthen-4-yl)-4-morpholino pyridin-2(1H)-one] | 100 to 500
CC(Nc1ccc2c(c1)Cc1cccc(-c3cc(N4CCOCC4)cc(=O)[nH]3)c1O2)c1cccnc1 (single isomer, unassigned) [Example 2-36-1, 4-morpholino-6-(7-((1-(pyridin-3-yl)ethyl)amino)-9H-xanthen-4-yl)pyridin-2(1H)-one] | 500 to 2000
O=c1cc(N2CCOCC2)cc(-c2cccc3c2Sc2ccc(NC4CCCCC4Cl)cc2S3)[nH]1 (centres unmarked) [Example 1-12-72, 6-(7-((2-Chlorocyclohexyl)amino)thianthren-1-yl)-4-morpholino pyridin-2(1H)-one] | 500 to 2000
Cc1cnc(C(CCN(C)C)Nc2ccc3c(c2)Cc2cccc(-c4cc(=O)cc(N5CCOCC5)o4)c2O3)cn1 (single isomer, unassigned) [Example 12-6, 2-(7-((3-(Dimethylamino)-1-(5-methylpyrazine-2-yl)propyl)amino)-9H-xanthen-4-yl)-6-morpholino-4H-pyran-4-one] | 100 to 500
Cc1ccc(C(Nc2ccc3c(c2)Cc2cccc(-c4cc(N5CCOCC5)cc(=O)[nH]4)c2O3)[C@H]2CN(C)CCO2)nc1 (stereo partly drawn) [Example 2-67, 6-(7-((((R)-4-methylmorpholin-2-yl)(5-methylpyridin-2-yl)methyl)amino)-9H-xanthen-4-yl)-4-morpholinopyridin-2(1H)-one] | < 100
Cc1ccc(C(Nc2ccc3c(c2)Sc2cccc(-c4cc(N5CCOCC5)cc(=O)[nH]4)c2S3)C2CCCCC2)nc1 (centres unmarked) [Example 1-12-126, 6-(7-((Cyclohexyl(5-methylpyridin-2-yl)methyl)amino)thianthren-1-yl)-4-morpholino pyridin-2(1H)-one] | 500 to 2000
COCc1cncc(CNc2ccc3c(c2)Cc2cccc(-c4cc(N5CCOCC5)cc(=O)[nH]4)c2O3)c1 [Example 2-2-33, 6-(7-(((5-(Methoxymethyl)pyridin-3-yl)methyl)amino)-9H-xanthen-4-yl)-4-morpholino pyridin-2(1H)-one] | 100 to 500
COc1ccncc1CNc1ccc2c(c1)Cc1cccc(-c3cc(N4CCOCC4)cc(=O)[nH]3)c1O2 [Example 2-2-34, 6-(7-(((4-Methoxypyridin-3-yl)methyl)amino)-9H-xanthen-4-yl)-4-morpholino pyridin-2(1H)-one] | 500 to 2000
Cc1cccc(C(CN)Nc2ccc3c(c2)Cc2cccc(-c4cc(N5CCOCC5)cc(=O)[nH]4)c2O3)n1 (centres unmarked) [Example 2-18, 6-(7-((2-Amino-1-(6-methylpyridin-2-yl)ethyl)amino)-9H-xanthen-4-yl)-4-morpholinopyridin-2(1H)-one] | 100 to 500
Cc1cccc(C(CCO)Nc2ccc3c(c2)Sc2cccc(-c4cc(N5CCOCC5)cc(=O)[nH]4)c2S3)n1 (centres unmarked) [Example 1-34-5, 6-(7-((3-Hydroxy-1-(6-methylpyridin-2-yl)propyl)amino)thianthren-1-yl)-4-morpholino pyridin-2(1H)-one] | 100 to 500
